From patent US20250367166A1, “NEXT GENERATION DIPROVOCIMS THAT ACTIVATE THE INNATE AND ADAPTIVE IMMUNE RESPONSE” (The Scripps Research Institute, priority 2022, published 2025) come the findings set out here.

Assay [1] has as its target TLR1/TLR2 (Homo sapiens, UniProt O60603+Q15399). Kind of assay: TNF-α release from PMA-differentiated human THP-1 cells (ELISA).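 For all read-outs here: cells exposed to graded compound concentrations for 4 h, TNF-α quantified in supernatant, LPS as positive and DMSO as negative control, values are duplicate means.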 Conditions: for Emax: THP-1, 4 h, read-out: Efficacy (magnitude) of response versus diprovocim-1 (100%), THP-1; for EC50: read-out: EC50 (nM) (THP-1): EC50 TNF-α release from human THP-1 cells, Table 5. A general note: ELISA stands for enzyme-linked immunosorbent assay.

In assay [2] the target is TLR1/TLR2 (Mus musculus, UniProt Q9EPQ1+Q9QUN7). Kind of assay: TNF-α release from thioglycolate-elicited mouse peritoneal macrophages (ELISA). To be noted: for Emax: 4 h, read-out: Efficacy (magnitude) of response versus diprovocim-1 (100%), mouse macrophages; for EC50: read-out: EC50 (nM) (mouse): EC50 TNF-α release from mouse macrophages, Table 5.

As a reminder, the EC50 is the concentration at which the effect is half-maximal.

Each structure is given as a SMILES string.

Sequence of TLR1/TLR2 (Mus musculus, UniProt Q9EPQ1+Q9QUN7) (Q9EPQ1 26-795): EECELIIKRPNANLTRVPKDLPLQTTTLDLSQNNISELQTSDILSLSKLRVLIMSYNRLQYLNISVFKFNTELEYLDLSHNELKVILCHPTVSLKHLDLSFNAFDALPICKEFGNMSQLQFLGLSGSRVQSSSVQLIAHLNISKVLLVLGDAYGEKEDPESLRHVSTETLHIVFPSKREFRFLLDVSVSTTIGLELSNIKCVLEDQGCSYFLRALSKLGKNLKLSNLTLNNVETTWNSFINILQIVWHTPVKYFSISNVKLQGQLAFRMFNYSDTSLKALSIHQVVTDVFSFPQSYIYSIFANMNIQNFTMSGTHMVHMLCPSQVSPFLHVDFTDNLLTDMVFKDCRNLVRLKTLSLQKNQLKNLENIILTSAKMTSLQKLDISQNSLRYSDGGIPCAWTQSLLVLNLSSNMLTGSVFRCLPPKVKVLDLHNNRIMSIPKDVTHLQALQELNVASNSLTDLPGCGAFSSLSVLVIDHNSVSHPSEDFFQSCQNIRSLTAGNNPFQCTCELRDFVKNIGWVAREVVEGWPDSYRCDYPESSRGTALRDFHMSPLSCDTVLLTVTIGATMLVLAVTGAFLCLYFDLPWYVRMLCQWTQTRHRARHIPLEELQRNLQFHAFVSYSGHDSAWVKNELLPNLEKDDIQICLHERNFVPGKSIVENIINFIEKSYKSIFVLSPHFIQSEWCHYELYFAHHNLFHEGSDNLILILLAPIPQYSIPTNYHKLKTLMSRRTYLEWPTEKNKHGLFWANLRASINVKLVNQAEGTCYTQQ
Sequence of TLR1/TLR2 (Mus musculus, UniProt Q9EPQ1+Q9QUN7) (Q9QUN7 25-784): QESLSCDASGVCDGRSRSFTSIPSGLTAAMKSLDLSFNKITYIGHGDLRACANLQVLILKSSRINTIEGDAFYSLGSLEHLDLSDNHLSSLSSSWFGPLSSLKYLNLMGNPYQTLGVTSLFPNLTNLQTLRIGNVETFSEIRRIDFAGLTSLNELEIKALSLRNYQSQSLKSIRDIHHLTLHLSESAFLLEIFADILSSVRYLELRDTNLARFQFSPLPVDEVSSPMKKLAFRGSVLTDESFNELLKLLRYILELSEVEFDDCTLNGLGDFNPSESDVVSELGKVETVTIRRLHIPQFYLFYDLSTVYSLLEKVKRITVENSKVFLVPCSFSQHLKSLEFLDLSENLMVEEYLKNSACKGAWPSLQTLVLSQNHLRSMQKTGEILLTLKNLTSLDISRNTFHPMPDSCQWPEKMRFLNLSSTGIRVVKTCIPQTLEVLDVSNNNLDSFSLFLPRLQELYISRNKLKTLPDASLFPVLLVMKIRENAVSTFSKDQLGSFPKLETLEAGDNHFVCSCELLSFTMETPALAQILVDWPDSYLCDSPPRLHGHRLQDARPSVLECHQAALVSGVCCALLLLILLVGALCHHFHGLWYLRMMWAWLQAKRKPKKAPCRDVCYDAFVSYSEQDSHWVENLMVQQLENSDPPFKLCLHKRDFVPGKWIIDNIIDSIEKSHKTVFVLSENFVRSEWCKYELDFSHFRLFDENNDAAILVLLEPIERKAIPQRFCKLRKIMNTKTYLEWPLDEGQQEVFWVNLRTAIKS
Sequence of TLR1/TLR2 (Homo sapiens, UniProt O60603+Q15399) (Q15399 25-786): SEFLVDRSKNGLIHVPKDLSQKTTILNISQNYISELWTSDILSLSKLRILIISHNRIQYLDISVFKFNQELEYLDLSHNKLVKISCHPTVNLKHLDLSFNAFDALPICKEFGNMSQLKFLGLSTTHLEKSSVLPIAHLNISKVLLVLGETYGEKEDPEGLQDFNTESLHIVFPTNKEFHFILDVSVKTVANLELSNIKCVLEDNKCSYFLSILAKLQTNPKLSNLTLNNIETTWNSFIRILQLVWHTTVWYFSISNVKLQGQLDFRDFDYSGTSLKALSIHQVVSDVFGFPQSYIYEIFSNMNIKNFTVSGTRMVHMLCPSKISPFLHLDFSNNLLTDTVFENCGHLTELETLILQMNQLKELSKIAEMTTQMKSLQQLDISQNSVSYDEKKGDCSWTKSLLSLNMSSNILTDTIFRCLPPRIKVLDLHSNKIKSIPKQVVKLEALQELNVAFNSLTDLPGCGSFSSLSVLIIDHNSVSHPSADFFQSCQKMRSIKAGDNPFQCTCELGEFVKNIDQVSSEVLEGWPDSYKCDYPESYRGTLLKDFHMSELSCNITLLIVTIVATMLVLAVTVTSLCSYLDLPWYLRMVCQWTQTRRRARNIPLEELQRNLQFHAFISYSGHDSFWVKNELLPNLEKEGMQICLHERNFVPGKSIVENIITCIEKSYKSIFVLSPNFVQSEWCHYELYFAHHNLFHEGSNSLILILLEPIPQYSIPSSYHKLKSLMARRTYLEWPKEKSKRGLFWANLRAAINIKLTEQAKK
Sequence of TLR1/TLR2 (Homo sapiens, UniProt O60603+Q15399) (O60603 21-784): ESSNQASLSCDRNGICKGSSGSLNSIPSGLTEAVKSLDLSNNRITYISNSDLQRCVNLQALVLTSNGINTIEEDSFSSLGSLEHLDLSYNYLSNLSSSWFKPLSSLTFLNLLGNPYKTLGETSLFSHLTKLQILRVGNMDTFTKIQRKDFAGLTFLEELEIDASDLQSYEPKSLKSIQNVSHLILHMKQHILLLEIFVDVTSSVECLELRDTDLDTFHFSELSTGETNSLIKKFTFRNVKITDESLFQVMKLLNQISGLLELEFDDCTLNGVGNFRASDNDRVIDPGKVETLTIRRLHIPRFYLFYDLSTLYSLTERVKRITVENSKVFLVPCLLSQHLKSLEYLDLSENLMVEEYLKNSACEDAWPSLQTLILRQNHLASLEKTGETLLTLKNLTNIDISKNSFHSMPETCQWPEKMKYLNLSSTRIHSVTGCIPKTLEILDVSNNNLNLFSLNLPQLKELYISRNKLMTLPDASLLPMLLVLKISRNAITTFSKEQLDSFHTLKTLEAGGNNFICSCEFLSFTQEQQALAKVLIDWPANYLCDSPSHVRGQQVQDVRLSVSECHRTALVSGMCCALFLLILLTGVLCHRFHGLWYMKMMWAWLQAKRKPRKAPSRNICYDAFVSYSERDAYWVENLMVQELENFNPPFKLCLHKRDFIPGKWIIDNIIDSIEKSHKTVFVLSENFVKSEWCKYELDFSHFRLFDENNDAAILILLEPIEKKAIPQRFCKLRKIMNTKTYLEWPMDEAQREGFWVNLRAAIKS

In the case of `CC(C)(C)OC(=O)N[C@@H](Cc1ccccc1)C(=O)OCCCCCCCCCCCCNC(=O)[C@@H]1CN(C(=O)c2ccc(C(=O)N3C[C@@H](C(=O)N[C@H]4C[C@@H]4c4ccccc4)[C@H](C(=O)N[C@H]4C[C@@H]4c4ccccc4)C3)cc2)C[C@H]1C(=O)N[C@H]1C[C@@H]1c1ccccc1` [Compound 63, (S)-12-((3S,4S)-1-(4-((3S,4S)-3,4-Bis(((1S,2R)-2-phenylcyclopropyl)carbamoyl)pyrrolidine-1-carbonyl)-benzoyl)-4-(((1S,2R)-2-phenylcyclopropyl)carbamoyl)-pyrrolidine-3-carboxamido)-dodecyl 2-((tert-butoxy-carbonyl)amino)-3-phenylpropanoate], the results for the Emax on TLR1/TLR2 [1] and at TLR1/TLR2 [2] were 100% and 220%, respectively. In addition, the concentration giving a half-maximal response (EC50) on TLR1/TLR2 [1] and on TLR1/TLR2 [2] was 40 nM throughout.

In the case of `CC(C)(C)OC(=O)N[C@@H](COCc1ccccc1)C(=O)OCCCCCCCCCCCCNC(=O)[C@@H]1CN(C(=O)c2ccc(C(=O)N3C[C@@H](C(=O)N[C@H]4C[C@@H]4c4ccccc4)[C@H](C(=O)N[C@H]4C[C@@H]4c4ccccc4)C3)cc2)C[C@H]1C(=O)N[C@H]1C[C@@H]1c1ccccc1` [Compound 64, (S)-12-((3S,4S)-1-(4-((3S,4S)-3,4-Bis(((1S,2R)-2-phenylcyclopropyl)carbamoyl)pyrrolidine-1-carbonyl)-benzoyl)-4-(((1S,2R)-2-phenylcyclopropyl)carbamoyl)-pyrrolidine-3-carboxamido)dodecyl 3-(benzyloxy)-2-((tert-butoxycarbonyl)amino)propanoate], on TLR1/TLR2 [1], the Emax turned out to be 100% and the EC50 was determined as 0.15 nM. On TLR1/TLR2 [2], the Emax worked out at 370% and the concentration for a half-maximal effect (EC50) is 30 nM.

Regarding `CC(C)(C)OC(=O)N[C@@H](CSCc1ccccc1)C(=O)OCCCCCCCCCCCCNC(=O)[C@@H]1CN(C(=O)c2ccc(C(=O)N3C[C@@H](C(=O)N[C@H]4C[C@@H]4c4ccccc4)[C@H](C(=O)N[C@H]4C[C@@H]4c4ccccc4)C3)cc2)C[C@H]1C(=O)N[C@H]1C[C@@H]1c1ccccc1` [Compound 65, (R)-12-((3S,4S)-1-(4-((3S,4S)-3,4-Bis(((1S,2R)-2-phenylcyclopropyl)carbamoyl)pyrrolidine-1-carbonyl)-benzoyl)-4-(((1S,2R)-2-phenylcyclopropyl)carbamoyl)-pyrrolidine-3-carboxamido)dodecyl 3-(benzylthio)-2-((tert-butoxycarbonyl)amino)propanoate], on TLR1/TLR2 [1], the Emax stood at 100% and the concentration for a half-maximal effect (EC50) came out at 18 nM. On TLR1/TLR2 [2], the Emax amounted to 200% and the concentration giving a half-maximal response (EC50) was 360 nM.

As for `CC(C)(C)OC(=O)N[C@@H](CCC(=O)OCc1ccccc1)C(=O)OCCCCCCCCCCCCNC(=O)[C@@H]1CN(C(=O)c2ccc(C(=O)N3C[C@@H](C(=O)N[C@H]4C[C@@H]4c4ccccc4)[C@H](C(=O)N[C@H]4C[C@@H]4c4ccccc4)C3)cc2)C[C@H]1C(=O)N[C@H]1C[C@@H]1c1ccccc1` [Compound 66, (S)-5-Benzyl 1-(12-((3S,4S)-1-(4-((3S,4S)-3,4-bis-(((1S,2R)-2-phenylcyclopropyl)carbamoyl)-pyrrolidine-1-carbonyl)-benzoyl)-4-(((1S,2R)-2-phenylcyclopropyl)-carbamoyl)pyrrolidine-3-carboxamido)dodecyl) 2-((tert-butoxycarbonyl)-amino)pentanedioate], on TLR1/TLR2 [1], the Emax came to 100% and the 50% effective concentration (EC50) turned out to be 39 nM. Besides, on TLR1/TLR2 [2], the Emax is 210% and the EC50 turned out to be 450 nM.

Regarding `CSCC[C@H](NC(=O)OC(C)(C)C)C(=O)OCCCCCCCCCCCCNC(=O)[C@@H]1CN(C(=O)c2ccc(C(=O)N3C[C@@H](C(=O)N[C@H]4C[C@@H]4c4ccccc4)[C@H](C(=O)N[C@H]4C[C@@H]4c4ccccc4)C3)cc2)C[C@H]1C(=O)N[C@H]1C[C@@H]1c1ccccc1` [Compound 67, (S)-12-((3S,4S)-1-(4-((3S,4S)-3,4-Bis(((1S,2R)-2-phenylcyclopropyl)carbamoyl)pyrrolidine-1-carbonyl)-benzoyl)-4-(((1S,2R)-2-phenylcyclopropyl)carbamoyl)-pyrrolidine-3-carboxamido)-dodecyl 2-((tert-butoxy-carbonyl)amino)-4-(methylthio)butanoate], the Emax on TLR1/TLR2 [1] was 100%; on TLR1/TLR2 [2], 150%. For the same compound, the EC50 at TLR1/TLR2 [1] was found to be 2.8 nM; on TLR1/TLR2 [2], 44 nM.

As for `Cc1ccc(S(=O)(=O)n2cnc(C[C@H](NC(=O)OC(C)(C)C)C(=O)OCCCCCCCCCCCCNC(=O)[C@@H]3CN(C(=O)c4ccc(C(=O)N5C[C@@H](C(=O)N[C@H]6C[C@@H]6c6ccccc6)[C@H](C(=O)N[C@H]6C[C@@H]6c6ccccc6)C5)cc4)C[C@H]3C(=O)N[C@H]3C[C@@H]3c3ccccc3)c2)cc1` [Compound 68, (S)-12-((3S,4S)-1-(4-((3S,4S)-3,4-Bis(((1S,2R)-2-phenylcyclopropyl)carbamoyl)pyrrolidine-1-carbonyl)benzoyl)-4-(((1S,2R)-2-phenylcyclopropyl)carbamoyl)pyrrolidine-3-carboxamido)-dodecyl 2-((tert-butoxy-carbonyl)amino)-3-(1-tosyl-1H-imidazol-4-yl)propanoate], at TLR1/TLR2 [1], the Emax is 90% and the concentration for a half-maximal effect (EC50) stood at 17 nM. Also, on TLR1/TLR2 [2], the Emax is 110% and the concentration giving a half-maximal response (EC50) was determined as 35 nM.

With `CC(C)(C)OC(=O)N[C@@H](CCCCNC(=O)OCC1c2ccccc2-c2ccccc21)C(=O)OCCCCCCCCCCCCNC(=O)[C@@H]1CN(C(=O)c2ccc(C(=O)N3C[C@@H](C(=O)N[C@H]4C[C@@H]4c4ccccc4)[C@H](C(=O)N[C@H]4C[C@@H]4c4ccccc4)C3)cc2)C[C@H]1C(=O)N[C@H]1C[C@@H]1c1ccccc1` [Compound 69, (S)-12-((3S,4S)-1-(4-((3S,4S)-3,4-Bis(((1S,2R)-2-phenylcyclopropyl)carbamoyl)pyrrolidine-1-carbonyl)-benzoyl)-4-(((1S,2R)-2-phenylcyclopropyl)carbamoyl)-pyrrolidine-3-carboxamido)-dodecyl 6-((((9H-fluoren-9-yl)methoxy)-carbonyl)amino)-2-((tert-butoxy-carbonyl)amino)-hexanoate], on TLR1/TLR2 [1], the Emax came to 100% and the half-maximal effective concentration (EC50) was 280 nM. Further, at TLR1/TLR2 [2], the Emax was 200% and the 50% effective concentration (EC50) turned out to be 1150 nM.

As for `CN(CC(=O)OCCCCCCCCCCCCNC(=O)[C@@H]1CN(C(=O)c2ccc(C(=O)N3C[C@@H](C(=O)N[C@H]4C[C@@H]4c4ccccc4)[C@H](C(=O)N[C@H]4C[C@@H]4c4ccccc4)C3)cc2)C[C@H]1C(=O)N[C@H]1C[C@@H]1c1ccccc1)C(=O)OC(C)(C)C` [Compound 70, 12-((3S,4S)-1-(4-((3S,4S)-3,4-Bis(((1S,2R)-2-phenyl-cyclopropyl)carbamoyl)pyrrolidine-1-carbonyl)-benzoyl)-4-(((1S,2R)-2-phenylcyclopropyl)carbamoyl)-pyrrolidine-3-carboxamido)-dodecyl 2-((tert-butoxycarbonyl)(methyl)amino)acetate], the Emax on TLR1/TLR2 [1] amounted to 100%; on TLR1/TLR2 [2], 110%. For the same compound, the figures for the EC50 on TLR1/TLR2 [1] and at TLR1/TLR2 [2] were 1.7 nM and 17 nM, respectively.
